Reference: article PMC8024735, “Low Z‐4OHtam concentrations are associated with adverse clinical outcome among early stage premenopausal breast cancer patients treated with adjuvant tamoxifen” (Molecular Oncology, 2020)
Where “and” joins values, the source holds several entries; their conditions need not be identical. Equal entries are not always repeated.

Assays:
[1] = Quantification of tamoxifen and seven metabolites in bone marrow plasma by LC-MS/MS; settings: for Mean concentration / Median concentration: bone marrow plasma, N = 406, ~ 8 months from tamoxifen initiation
Description: During the isolation of mononuclear cells, BM samples were diluted 1 : 2 in PBS and centrifuged 10 min at 1000 g. After centrifugation, 3 × 1 mL samples of BM plasma was removed and stored at −40 °C and later transferred to −80 °C.
Tamoxifen and seven metabolites (Table 2) were quantified in human BM plasma samples collected ~ 8 months from tamoxifen initiation using our previously described method for serum [17]. In brief, protein precipitation (20 μL) of BM plasma was performed in acetonitrile containing deuterated internal standards. The supernatant (80 μL) was evaporated to dryness using nitrogen and subsequently reconstituted in 500 μL water : methanol (20 : 80, v:v). Subsequently, the samples were chromatographically separated on a Waters Acquity UPLC system (Milford, MA, USA) using a Waters BEH Phenyl column (100 mm × 2.1 mm, 1.7 μm particle size). The column was developed by a gradient elution of 0.01% aqueous solution of formic acid and methanol as weak and strong mobile phases, respectively. The compounds were subjected to atmospheric pressure photoionization and detected in positive ion mode using a Xevo TQ‐S tandem mass spectrometer (Waters, Taunton, MA, USA). All measured concentrations were multiplied by 3 to account for the dilution factor caused by adding 2 volumes of PBS during the isolation of mononuclear cells.

ER‐positive BC = system: ER‐positive BC; parameters: method as in PMID 15894097; settings: patients using tamoxifen; cited from earlier work
ER = settings: fold higher than tamoxifen; cited from earlier work
[2] = system: estrogen receptor‐positive breast cancer (BC) patients; test: Breast cancer-specific survival (BCSS) according to active metabolite thresholds, Kaplan-Meier and Cox regression; format: in vivo, human
Description: Patients included in this retrospective analysis were selected from subjects on a prospective trial investigating the value of Secondary Adjuvant (rescue) Treatment with docetaxel (Taxotere) [SATT (Secondary Adjuvant Treatment with Taxotere) study] for BC patients with disseminated tumor cells in their bone marrow (BM). […] Inclusion criteria were completion of primary surgery, completion of six cycles of anthracycline (AC)‐containing chemotherapy, and node‐positive or pT1c‐T4G2‐3 node‐negative BC with no earlier or other concomitant carcinoma.
Thus, they reflect patients treated with endocrine treatment outside studies, according to national guidelines.
Selection of patients younger than 45 years ensured that the patients received tamoxifen as a monotherapy for 5 years according to guidelines at the time of inclusion. […] Patients with plasma tamoxifen concentrations of < 40 nM were considered to be nonadherent to tamoxifen and excluded from both subgroups. As molecular subtyping was not available, the relevance of luminal subgroup status on active metabolite thresholds was investigated by creation of a Luminal B‐like subgroup based on tumor pathological surrogate markers available. […] All other patients were grouped as Luminal A [29, 30].
Survival analyses included Kaplan–Meier and Cox regression analyses in which breast cancer‐specific survival (BCSS), defined as time from inclusion to death by BC, was used as the main outcome variable. The log‐rank test was applied to test for statistical difference in survival between groups. […] First, we fitted univariable Cox models. Next, in multivariable Cox regression models we included both clinically relevant variables and variables with a P‐value ≤ 0.2 from the univariable analysis. […] Distribution of metabolite concentrations and clinical variables was calculated and presented as means, medians, and frequencies. Interpatient variability in tamoxifen concentrations was calculated as coefficients of variation. Ratios between Z‐endoxifen and Z‐4OHtam were calculated by dividing the two metabolite concentrations and reported as means with range. All statistical analyses were conducted using IBM ® SPSS ® Statistics version 25 (SPSS, Inc., Chicago, IL, USA). Two‐tailed P‐values < 0.05 were considered statistically significant.

breast cancer patients = system: breast cancer patients; parameters: method as in PMID 29183390; settings: thresholds Z-4OHtam 3.26 nM, Z-endoxifen 9 nM, learning set; cited from earlier work
[3] = parameters: method as in printed; settings: has been reported, ref not given; cited from earlier work
[4] = all analyzed patients (n = 406)

## CC/C(=C(\c1ccccc1)c1ccc(OCCNC)cc1)c1ccccc1 [NDtam]
[1]
  Mean concentration: 694.9 nM
  Median concentration: 655.8 nM

## CC/C(=C(\c1ccccc1)c1ccc(OCCN)cc1)c1ccccc1 [NNDDtam, N,N‐di‐desmethyl tamoxifen]
[1]
  Mean concentration: 94.7 nM

## CC/C(=C(\c1ccccc1)c1ccc(OCCN(C)C)cc1)c1ccccc1 [Tam, tamoxifen]
[1]
  Mean concentration: 365.9 nM
  Median concentration: 341.2 nM
ER‐positive BC
  Patients experiencing a relapse within 10 years: ~ 25%

## CC/C(=C(\c1ccccc1)c1ccc(OCC[N+](C)(C)[O-])cc1)c1ccccc1 [TamNoX]
[1]
  Mean concentration: 49.9 nM
  Median concentration: 43.1 nM

## CC/C(=C(\c1ccccc1)c1ccc(OCCN(C)C)cc1)c1ccc(O)cc1 [Z‐4'‐OHtam]
[1]
  Mean concentration: 6.9 nM
  Median concentration: 6.6 nM

## CCC(=C(c1ccccc1)c1ccc(OCCNC)cc1)c1ccc(O)cc1 [Z‐4'‐endoxifen]
[1]
  Mean concentration: 20.8 nM
  Median concentration: 19.6 nM

## CC/C(=C(\c1ccc(O)cc1)c1ccc(OCCN(C)C)cc1)c1ccccc1 [Z‐4OHtam, Z‐4‐hydroxy‐tamoxifen]
ER
  Affinity to the ER compared with tamoxifen: 100 × and ~ 100 ×

## CC/C(=C(\c1ccc(O)cc1)c1ccc(OCCNC)cc1)c1ccccc1 [Z‐endoxifen, 4‐hydroxy‐N‐desmethyl tamoxifen]
[1]; 'tamoxifen-only' subgroup
  Median ratio between Z-endoxifen and Z-4OHtam concentrations: 5.6
  Range of ratio between Z-endoxifen and Z-4OHtam concentrations: 1.9–14.9
[1]; [4]
  Median ratio between Z-endoxifen and Z-4OHtam concentrations: 5.7
  Range of ratio between Z-endoxifen and Z-4OHtam concentrations: 1.2–14.9
[1]
  Mean concentration: 28.7 nM
  Median concentration: 26.6 nM
[2]; 'tamoxifen-only' subgroup
  Association of ordinal categories (low, moderate, high concentration) with BCSS: No significant associations
[2]; 'tamoxifen-only' subgroup, uni-/multivariable
  Association of threshold with BCSS: No uni‐/multivariable associations
[2]; Z-endoxifen 9.00 nM threshold, all patients n = 406
  HR for BCSS: 0.63 (0.15-2.60)
[2]; Z-endoxifen ≤ 9 nM vs > 9 nM, 'tamoxifen-only' subgroup n = 191
  HR (95% CI) for BCSS, univariable: 0.98 (0.23–4.15)
[2]; all 406 patients, thresholds 9 nM Z-endoxifen, 3.26 nM Z-4OHtam
  Association of concentrations below thresholds with BCSS: not associated with BCSS
[2]; post hoc analysis, thresholds 3.26 and 9 nM
  Predictive value of thresholds in Luminal A / Luminal B-like subgroups: not predictive of survival in either subgroup
Breast cancer patients
  Hazard ratio (HR) of threshold in prior report: 3.73
ER
  Affinity to the ER compared with tamoxifen: 100 × and ~ 100 ×
[3]
  Abundance in serum compared with Z-4OHtam: up to 10 times
